{
  "source": "patent US20050250784A1",
  "about": "(Miikana Therapeutics Corporation, priority 2004, published 2005)",
  "data": [
    {"system": "HDAC (HeLa cell nuclear extract, a mosaic of HDAC enzymes)", "assay": "In vitro fluorescent histone deacetylase assay (Biomol HDAC fluorescent activity kit)", "type": "biochemical", "conditions": "compound concentration 100 μM; HeLa cell nuclear extract as HDAC source; substrate 50 μM, 10 min, room temperature", "method": "Histone deacetylase (HDAC) activity assays were performed using the HDAC fluorescent activity assay/drug discovery kit (Biomol Research Laboratories, Plymouth Meeting, Pa.) essentially according to the manufacturer's instructions. The included HeLa cell nuclear extract, which contains a mosaic of HDAC enzymes and other nuclear factors, was used as the source of HDAC activity. The final substrate concentration in the assay mixture was 50 μM. The reaction was allowed to proceed for 10 min at room temperature before stopping the reaction. Test compounds were prepared as 20 mM stock solutions in DMSO (Molecular Biology grade, Sigma-Aldrich Co., St. Louis, Mo.) and stored at −70° C. Serial dilutions of test compounds were prepared in assay buffer immediately prior to testing. DMSO was determined in a separate trial to have no significant effect on the activity of this assay at concentrations up to 5%; the final DMSO concentration in the wells was no more than 2% and therefore DMSO effects were safely neglected. Assays were performed in white polystyrene 96-well half-area assay plates (Corning, Corning, N.Y.) and measured on a Wallace 1420 fluorescent plate reader (Wallac Oy, Turku, Finland) with an excitation wavelength of 355 nm, an emission wavelength of 460 nm, and a 1 sec signal averaging time.", "units": {"% inhibition HDAC @ 100 μM": "%"}, "values": [
      {"smiles": "O=C(NO)c1cnc(N2CCN(S(=O)(=O)c3cc4ccccc4s3)CC2)s1", "note": "[Example 243, 2-[4-(2-benzothiphenesulfonyl)-piperazin-1-yl]-thiazole-5-carboxylic acid hydroxyamide]", "% inhibition HDAC @ 100 μM": 99},
      {"smiles": "CSc1nccc(-c2ccc(S(=O)(=O)N3CCN(c4ncc(C(=O)NO)s4)CC3)s2)n1", "note": "[Example 245, 2-[4-(2-{2-methylthiopyrimidine-4-yl}-5-thiophenesulfonyl)-piperazin-1-yl]-thiazole-5-carboxylic acid hydroxyamide]", "% inhibition HDAC @ 100 μM": 95},
      {"smiles": "O=C(NO)c1cnc(N2CCN(S(=O)(=O)c3ccc4nsnc4c3)CC2)s1", "note": "[Example 246, 2-[4-(2,1,3-benzothiadiazole-5-sulfonyl)-piperazin-1-yl]-thiazole-5-carboxylic acid hydroxyamide]", "% inhibition HDAC @ 100 μM": 98},
      {"smiles": "O=C(NO)c1cnc(N2CCN(S(=O)(=O)c3ccc(Oc4ccccc4)nc3)CC2)s1", "note": "[Example 247, 2-[4-(2-phenoxypyridine-5-sulfonyl)-piperazin-1-yl]-thiazole-5-carboxylic acid hydroxyamide]", "% inhibition HDAC @ 100 μM": 96},
      {"smiles": "O=C(NO)c1cnc(N2CCN(S(=O)(=O)c3cccc(-c4ccccc4)c3)CC2)s1", "note": "[Example 251, 2-[4-(3-biphenylsulfonyl)piperazin-1-yl]-thiazole-5-carboxylic acid hydroxyamide]", "% inhibition HDAC @ 100 μM": 100},
      {"smiles": "CCCCS(=O)(=O)N1CCN(c2ncc(C(=O)NO)s2)CC1", "note": "[Example 253, 2-[4-(n-butylsulfonyl)-piperazin-1-yl]-thiazole-5-carboxylic acid hydroxyamide]", "% inhibition HDAC @ 100 μM": 94},
      {"smiles": "O=C(NO)c1cnc(N2CCN(S(=O)(=O)c3ccc(Br)s3)CC2)s1", "note": "[Example 255, 2-{4-[(5-bromothien-2-yl)sulfonyl]piperazin-1-yl}-N-hydroxy-1,3-thiazole-5-carboxamide]", "% inhibition HDAC @ 100 μM": 29},
      {"smiles": "O=C(NO)c1cnc(N2CCN(S(=O)(=O)c3ccc(-c4ccc5c(c4)OCO5)cc3)CC2)s1", "note": "[Example 260, 2-(4-{[4-(1,3-benzodioxol-5-yl)phenyl]sulfonyl}piperazin-1-yl)-1,3-thiazole-5-carboxylic acid hydroxyamide]", "% inhibition HDAC @ 100 μM": 99},
      {"smiles": "O=C(NO)c1cnc(N2CCN(S(=O)(=O)c3ccc(-c4cccc(F)c4)cc3)CC2)s1", "note": "[Example 261]", "% inhibition HDAC @ 100 μM": 95},
      {"smiles": "O=C(NO)c1cnc(N2CCN(S(=O)(=O)c3ccc(-c4cccc(CN5CCCCC5)c4)cc3)CC2)s1", "note": "[Example 273]", "% inhibition HDAC @ 100 μM": 100},
      {"smiles": "O=C(NO)c1cnc(N2CCN(S(=O)(=O)c3ccc(-c4ccsc4CN4CCCC4)cc3)CC2)s1", "note": "[Example 282, 2-(4-[4-{(2-(pyrrolidin-1-ylmethyl)-thien-3-yl)phenylsulfonyl}]piperazin-1-yl)-1,3-thiazole-5-carboxylic acid hydroxyamide]", "% inhibition HDAC @ 100 μM": 99},
      {"smiles": "CN1CCN(Cc2cccc(-c3ccc(S(=O)(=O)N4CCN(c5ncc(C(=O)NO)s5)CC4)cc3)c2)CC1", "note": "[Example 284]", "% inhibition HDAC @ 100 μM": 100},
      {"smiles": "CCN(C)Cc1cccc(-c2ccc(S(=O)(=O)N3CCN(c4ncc(C(=O)NO)s4)CC3)cc2)c1", "note": "[Example 286, 2-{4-[(3′-[ethyl(methyl)amino]methyl]-1,1′-biphenylsulfonyl]piperazin-1-yl}-1,3-thiazole-5-carboxylic acid hydroxyamide]", "% inhibition HDAC @ 100 μM": 99},
      {"smiles": "CC(C)N(C)Cc1cccc(-c2ccc(S(=O)(=O)N3CCN(c4ncc(C(=O)NO)s4)CC3)cc2)c1", "note": "[Example 287, 2-{4-[(3′-[isopropyl(methyl)amino]methyl]-1,1′-biphenylsulfonyl]-piperazin-1-yl}-1,3-thiazole-5-carboxylic acid hydroxyamide]", "% inhibition HDAC @ 100 μM": 99},
      {"smiles": "O=C(NO)c1cnc(N2CCN(S(=O)(=O)c3ccc(-c4ccc(CN5CCCC5)s4)cc3)CC2)s1", "note": "[Example 288]", "% inhibition HDAC @ 100 μM": 99},
      {"smiles": "O=C(NO)c1cnc(N2CCN(S(=O)(=O)c3ccc(-c4sccc4CN4CCCC4)cc3)CC2)s1", "note": "[Example 289]", "% inhibition HDAC @ 100 μM": 99},
      {"smiles": "O=C(NO)c1cnc(N2CCN(S(=O)(=O)c3ccc(-c4cncnc4)cc3)CC2)s1", "note": "[Example 291, 2-[4-{(4-pyrimidine)benzenesulfonyl}-piperazin-1-yl]-thiazole-5-carboxylic acid hydroxyamide]", "% inhibition HDAC @ 100 μM": 99},
      {"smiles": "CC(=O)Nc1ccc(-c2ccc(S(=O)(=O)N3CCN(c4ncc(C(=O)NO)s4)CC3)cc2)cc1", "note": "[Example 292]", "% inhibition HDAC @ 100 μM": 100},
      {"smiles": "O=C(NO)c1cnc(N2CCN(S(=O)(=O)c3ccc(-c4cccnc4)cc3)CC2)s1", "note": "[Example 293, 2-[4-{(3-pyrido)benzenesulfonyl}-piperazin-1-yl]-thiazole-5-carboxylic acid hydroxyamide]", "% inhibition HDAC @ 100 μM": 100},
      {"smiles": "O=C(NO)c1cnc(N2CCN(S(=O)(=O)CCc3ccccc3)CC2)s1", "note": "[Example 294, 2-[4-(phenethylsulfonyl)piperazin-1-yl]-thiazole-5-carboxylic acid hydroxyamide]", "% inhibition HDAC @ 100 μM": 98},
      {"smiles": "CN(C)Cc1ccc(S(=O)(=O)N2CCN(c3ncc(C(=O)NO)s3)CC2)cc1", "note": "[Example 295]", "% inhibition HDAC @ 100 μM": 98},
      {"smiles": "CN(C)Cc1cccc(S(=O)(=O)N2CCN(c3ncc(C(=O)NO)s3)CC2)c1", "note": "[Example 297]", "% inhibition HDAC @ 100 μM": 99},
      {"smiles": "O=C(NO)c1cnc(N2CCN(S(=O)(=O)c3cccc(CN4CCCC4)c3)CC2)s1", "note": "[Example 298]", "% inhibition HDAC @ 100 μM": 98},
      {"smiles": "O=C(NO)c1cnc(N2CCN(S(=O)(=O)c3ccc(CN4CCCC4)cc3)CC2)s1", "note": "[Example 305]", "% inhibition HDAC @ 100 μM": 99},
      {"smiles": "O=C(NO)c1cnc(N2CCN(S(=O)(=O)c3ccc(CN4CCOCC4)cc3)CC2)s1", "note": "[Example 306]", "% inhibition HDAC @ 100 μM": 99}
    ]}
  ]
}
